Test results reported in US9708336B2, “Metallo-beta-lactamase inhibitors” (priority 2014, dated 2017).
Like-named read-outs stand apart in the source and are kept apart here.

Legend:
VIM-1 = VIM-1 (Pseudomonas aeruginosa (strain ATCC 15692 / DSM 22644 / CIP 104116 / JCM 14847 / LMG 12228 / 1C / PRS 101 / PAO1), UniProt A0A0F7KYQ8); test: Enzyme activity: determination of IC50, fluorescence assay with CCF2-FA substrate (VIM-1); assay type: biochemical
NDM-1 = NDM-1 (Klebsiella pneumoniae, UniProt C7C422); test: biochemical; assay type: biochemical; conditions: read-out: NDM-1 IC50
[1] = system: Escherichia coli expressing NDM-1 (CLB30016); test: Antibiotic potentiation activity: synergistic concentration (MITC95) with imipenem, OD600 growth; assay type: cell-based; conditions: for Escherichia coli expressing NDM-1 (CLB 30016) MITC95: concentration giving 95% inhibition of bacterial growth
Outline: (§1)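 Inoculum: saline suspension of overnight colonies, 1:100 into 1.1× CAMHB. Imipenem 4 μg/ml final (alt. 1 μg/ml) + compound; 35 °C, 22–24 h; absorbance read-out.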

[2] = system: Serratia marcescens expressing IMP-1 (CL5741); test: as above; assay type: cell-based; conditions: for Serratia marcescens expressing IMP-1 (CL5741) MITC95: concentration giving 95% inhibition of bacterial growth
Outline: as §1

[3] = system: Klebsiella pneumoniae expressing VIM-1 (IHMA599644); test: as above; assay type: cell-based; conditions: for Klebsiella pneumoniae expressing VIM-1 (IHMA 599644) MITC95: concentration giving 95% inhibition of bacterial growth
Outline: as §1

IMP-1 = IMP-1 (Serratia marcescens, UniProt P52699); test: biochemical; assay type: biochemical; conditions: read-out: IMP-1 IC50
[4] = VIM-1 IC50, fluorescence assay with CCF2-FA substrate
[5] = fluorescence assay with CCF2-FA substrate
[6] = CLB30016 (NDM-1), 95% inhibition of bacterial growth
[7] = CL5741 (IMP-1), 95% inhibition of bacterial growth
[8] = IHMA599644 (VIM-1), 95% inhibition of bacterial growth
[9] = VIM-1 enzyme, CCF2-FA fluorescence assay, read-out: VIM-1 IC50
[10] = NDM-1 enzyme, CCF2-FA fluorescence assay
[11] = Escherichia coli expressing NDM-1 (CLB30016), 95% growth inhibition
[12] = Serratia marcescens expressing IMP-1 (CL5741), 95% growth inhibition
[13] = Klebsiella pneumoniae expressing VIM-1 (IHMA599644), 95% growth inhibition
[14] = IMP-1 enzyme, CCF2-FA fluorescence assay
[15] = VIM-1 enzyme, CCF2-FA substrate, read-out: VIM-1 IC50
[16] = NDM-1 enzyme, CCF2-FA substrate
[17] = (CLB30016, NDM-1), 95% growth inhibition
[18] = Serratia marcescens CL5741 (IMP-1), 95% growth inhibition
[19] = Klebsiella pneumoniae IHMA599644 (VIM-1), 95% growth inhibition
[20] = IMP-1 enzyme, CCF2-FA substrate
[21] = fluorescence assay with CCF2-FA substrate, read-out: VIM-1 IC50
[22] = VIM-1 IC50, VIM-1 enzyme, CCF2-FA substrate

NDM-1, sequence (C7C422 whole entry, looked up, species assumed): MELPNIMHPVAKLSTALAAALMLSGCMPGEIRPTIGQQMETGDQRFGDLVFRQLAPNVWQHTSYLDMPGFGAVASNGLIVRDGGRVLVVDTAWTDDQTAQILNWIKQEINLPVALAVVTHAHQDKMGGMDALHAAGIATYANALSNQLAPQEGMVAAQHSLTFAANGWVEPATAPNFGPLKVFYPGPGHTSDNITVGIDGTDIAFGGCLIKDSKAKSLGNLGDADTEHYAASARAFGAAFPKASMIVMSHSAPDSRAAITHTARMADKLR
IMP-1, sequence (P52699 whole entry, looked up): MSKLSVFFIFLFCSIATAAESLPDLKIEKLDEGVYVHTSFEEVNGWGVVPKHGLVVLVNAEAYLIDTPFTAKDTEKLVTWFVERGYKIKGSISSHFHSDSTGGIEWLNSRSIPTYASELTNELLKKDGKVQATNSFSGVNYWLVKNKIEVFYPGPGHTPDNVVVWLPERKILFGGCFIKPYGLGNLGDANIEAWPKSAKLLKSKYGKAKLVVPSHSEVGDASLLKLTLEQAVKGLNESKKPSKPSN

## N=C(N)N1CCC2(CCC(c3ccc(C(F)(F)F)c(S(N)(=O)=O)c3-c3nnn[nH]3)CC2)CC1 [Example 826, 9-[3-sulfamoyl-2-(1H-tetrazol-5-yl)-4-(trifluoromethyl)phenyl]-3-azaspiro[5.5]undecane-3-carboxamidine]
VIM-1; [4]
  IC50: 1.36 nM
NDM-1; [5]
  IC50: 0.491 nM
[1]; [6]
  Escherichia coli MITC95: 1.563 µM
[2]; [7]
  Serratia marcescens MITC95: 3.125 µM
[3]; [8]
  Klebsiella pneumoniae MITC95: 25 µM
IMP-1; [5]
  IC50: 1.45 nM

## NC(=O)CNCc1ccc(-c2cccc(S(N)(=O)=O)c2-c2nnn[nH]2)cc1 [Example 340, 2-(((3′-sulfamoyl-2′-(1H-tetrazol-5-yl)-[1,1′-biphenyl]-4-yl)methyl)amino)acetamide]
VIM-1; [9]
  IC50: 158 nM
NDM-1; [10]
  IC50: 5.14 nM
[1]; [11]
  Escherichia coli MITC95: 0.3906 µM
[2]; [12]
  Serratia marcescens MITC95: 1.563 µM
[3]; [13]
  Klebsiella pneumoniae MITC95: 25 µM
IMP-1; [14]
  IC50: 90.2 nM

## CC(CC(=O)O)NCc1ccc(-c2cccc(S(N)(=O)=O)c2-c2nnn[nH]2)cc1 (stereo not drawn) [Example 344, 3-({[3′-sulfamoyl-2′-(1H-tetrazol-5-yl)biphenyl-4-yl]methyl}amino)butanoic acid]
VIM-1; [9]
  IC50: 585 nM
NDM-1; [10]
  IC50: 32.8 nM
[1]; [11]
  Escherichia coli MITC95: 2.344 µM
[2]; [12]
  Serratia marcescens MITC95: 4.688 µM
[3]; [13]
  Klebsiella pneumoniae MITC95: 100 µM
IMP-1; [14]
  IC50: 242 nM

## NS(=O)(=O)c1c(C(F)(F)F)ccc(N2CC3C(CO)C3C2)c1-c1nnn[nH]1 (stereo not drawn) [Example 658, 3-[6-(hydroxymethyl)-3-azabicyclo[3.1.0]hex-3-yl]-2-(1H-tetrazol-5-yl)-6-(trifluoromethyl)benzenesulfonamide]
VIM-1; [15]
  IC50: 5.26 nM
NDM-1; [16]
  IC50: 5.12 nM
[1]; [17]
  Escherichia coli MITC95: 2.344 µM
[2]; [18]
  Serratia marcescens MITC95: 0.7813 µM
[3]; [19]
  Klebsiella pneumoniae MITC95: 12.5 µM
IMP-1; [20]
  IC50: 7 nM

## NS(=O)(=O)c1nccc(-n2cnc3ccccc32)c1-c1nn[nH]n1 [Example 246, 4-(1H-benzo[d]imidazol-1-yl)-3-(2H-tetrazol-5-yl)pyridine-2-sulfonamide]
VIM-1; [9]
  IC50: 78.3 nM
NDM-1; [10]
  IC50: 30.2 nM
[1]; [11]
  Escherichia coli MITC95: 0.5859 µM
[2]; [12]
  Serratia marcescens MITC95: 150 µM
[3]; [13]
  Klebsiella pneumoniae MITC95: 12.5 µM
IMP-1; [14]
  IC50: 2800 nM

## N=C(N)NC1Cc2ccc(-c3ccc(C(F)(F)F)c(S(N)(=O)=O)c3-c3nn[nH]n3)cc2C1 (stereo not drawn) [Example 447, 3-(2-guanidino-2,3-dihydro-1H-inden-5-yl)-2-(2H-tetrazol-5-yl)-6-(trifluoromethyl)benzenesulfonamide]
VIM-1; [9]
  IC50: 0.171 nM
NDM-1; [10]
  IC50: 7.13 nM
[1]; [11]
  Escherichia coli MITC95: 1.086 µM
[2]; [12]
  Serratia marcescens MITC95: 0.125 µM
[3]; [13]
  Klebsiella pneumoniae MITC95: 0.8906 µM
IMP-1; [14]
  IC50: 4.26 nM

## CC(CCCN)N[C@H]1CC[C@H](c2ccc(C(F)(F)F)c(S(N)(=O)=O)c2-c2nnn[nH]2)CC1 (stereo partly drawn) [Example 688, 3-{4-[(4-amino-1-methylbutyl)amino]cyclo-hexyl)-2-(1H-tetrazol-5-yl)-6-(trifluoromethyl)benzene sulfonamide]
VIM-1; [15]
  IC50: 13.4 nM
NDM-1; [16]
  IC50: 44.1 nM
[1]; [17]
  Escherichia coli MITC95: 1.563 µM
[2]; [18]
  Serratia marcescens MITC95: 6.25 µM
[3]; [19]
  Klebsiella pneumoniae MITC95: 12.5 µM
IMP-1; [20]
  IC50: 158 nM

## NS(=O)(=O)c1cccc(-c2cnn(CCN3CCOCC3)c2)c1-c1nnn[nH]1 [Example 126, 3-(1-(2-morpholinoethyl)-1H-pyrazol-4-yl)-2-(1H-tetrazol-5-yl)benzenesulfonamide]
VIM-1; [21]
  IC50: 14400 nM
NDM-1; [5]
  IC50: 166 nM
[1]
  Escherichia coli expressing NDM-1 (CLB 30016) MITC95: 6.25 µM
[2]
  Serratia marcescens expressing IMP-1 (CL5741) MITC95: 25 µM
[3]
  Klebsiella pneumoniae expressing VIM-1 (IHMA 599644) MITC95: >200 µM
IMP-1; [5]
  IC50: 864 nM

## NS(=O)(=O)c1c(C(F)(F)F)ccc(N2CCN(CCCO)CC2)c1-c1nnn[nH]1 [Example 664, 3-[4-(3-hydroxypropyl)piperazin-1-yl]-2-(1H-tetrazol-5-yl)-6-(trifluoromethyl)benzenesulfonamide]
VIM-1; [15]
  IC50: 52 nM
NDM-1; [16]
  IC50: 18.1 nM
[1]; [17]
  Escherichia coli MITC95: 0.25 µM
[2]; [18]
  Serratia marcescens MITC95: 0.418 µM
[3]; [19]
  Klebsiella pneumoniae MITC95: 6.25 µM
IMP-1; [20]
  IC50: 38.5 nM

## NS(=O)(=O)c1c(C(F)(F)F)ccc(C2CCCc3sc(C(=O)O)nc32)c1-c1nnn[nH]1 (stereo not drawn) [Example 510, 4-(3-Sulfamoyl-2-(1H-tetrazol-5-yl)-4-(trifluoromethyl)phenyl)-4,5,6,7-tetrahydrobenzo[d]thiazole-2-carboxylic acid]
VIM-1; [15]
  IC50: 12.8 nM
NDM-1; [16]
  IC50: 3.42 nM
[1]; [17]
  Escherichia coli MITC95: 50 µM
[2]; [18]
  Serratia marcescens MITC95: 200 µM
[3]; [19]
  Klebsiella pneumoniae MITC95: >200 µM
IMP-1; [20]
  IC50: 47.4 nM

## NCC1CCC(N2CC(c3ccc(-c4ccc(C(F)(F)F)c(S(N)(=O)=O)c4-c4nnn[nH]4)cc3)C2)CC1 (stereo not drawn) [Example 813, 4′-{1-[4-(aminomethyl)cyclohexyl]azetidin-3-yl}-2-(1H-tetrazol-5-yl)-4-(trifluoromethyl)biphenyl-3-sulfonamide]
VIM-1; [4]
  IC50: 20.6 nM
NDM-1; [5]
  IC50: 6.27 nM
[1]; [6]
  Escherichia coli MITC95: 6.25 µM
[2]; [7]
  Serratia marcescens MITC95: 6.25 µM
[3]; [8]
  Klebsiella pneumoniae MITC95: 100 µM
IMP-1; [5]
  IC50: 9.86 nM

## CC(=O)NC1CCN(c2ccc(-c3cccc(S(N)(=O)=O)c3-c3nnn[nH]3)cn2)C1 (stereo not drawn) [Example 623, N-[1-[5-[3-sulfamoyl-2-(1H-tetrazol-5-yl)phenyl]-2-pyridyl]pyrrolidin-3-yl]acetamide]
VIM-1; [22]
  IC50: 207 nM
NDM-1; [16]
  IC50: 7.94 nM
[1]; [17]
  Escherichia coli MITC95: 1.953 µM
[2]; [18]
  Serratia marcescens MITC95: 6.25 µM
[3]; [19]
  Klebsiella pneumoniae MITC95: 150 µM
IMP-1; [20]
  IC50: 79.5 nM

## NS(=O)(=O)c1cccc(-c2ccc(C3CCN(C[C@H]4CNCCO4)CC3)cc2)c1-c1nnn[nH]1 [Example 619]
VIM-1; [22]
  IC50: 388 nM
NDM-1; [16]
  IC50: 8.23 nM
[1]; [17]
  Escherichia coli MITC95: 0.7813 µM
[2]; [18]
  Serratia marcescens MITC95: 0.9766 µM
[3]; [19]
  Klebsiella pneumoniae MITC95: 150 µM
IMP-1; [20]
  IC50: 10.8 nM

## NCCc1cccc(-c2ccc(C(F)(F)F)c(S(N)(=O)=O)c2-c2nnn[nH]2)c1 [Example 734, 3′-(2-aminoethyl)-2-(1H-tetraozl-5-yl)-4-(trifluoromethyl)biphenyl-3-sulfonamide]
VIM-1; [15]
  IC50: 3.27 nM
NDM-1; [16]
  IC50: 31.4 nM
[1]; [17]
  Escherichia coli MITC95: 12.5 µM
[2]; [18]
  Serratia marcescens MITC95: 25 µM
[3]; [19]
  Klebsiella pneumoniae MITC95: 12.5 µM
IMP-1; [20]
  IC50: 34.4 nM

## N#Cc1cncc(-c2cccc(S(N)(=O)=O)c2-c2nnn[nH]2)c1 [Example 136, 3-(5-cyanopyridin-3-yl)-2-(1H-tetrazol-5-yl)benzenesulfonamide]
VIM-1; [21]
  IC50: 150 nM
NDM-1; [5]
  IC50: 24.8 nM
[1]
  Escherichia coli expressing NDM-1 (CLB 30016) MITC95: 1.563 µM
[2]
  Serratia marcescens expressing IMP-1 (CL5741) MITC95: 25 µM
[3]
  Klebsiella pneumoniae expressing VIM-1 (IHMA 599644) MITC95: 37.5 µM
IMP-1; [5]
  IC50: 1690 nM

## Cc1n[nH]c2c1CN(c1ccc(C(F)(F)F)c(S(N)(=O)=O)c1-c1nnn[nH]1)CC2 [Example 655]
VIM-1; [15]
  IC50: 0.225 nM
NDM-1; [16]
  IC50: 0.985 nM
[1]; [17]
  Escherichia coli MITC95: 2.344 µM
[2]; [18]
  Serratia marcescens MITC95: 0.5859 µM
[3]; [19]
  Klebsiella pneumoniae MITC95: 9.375 µM
IMP-1; [20]
  IC50: 7.8 nM

## NS(=O)(=O)c1c(CC[C@H]2CC[C@@H](N)CC2)ccc(-c2ccc(C3CCNC3)cc2)c1-c1nnn[nH]1 (stereo partly drawn) [Example 585, 4-(2-((1s,4r)-4-aminocyclohexyl)ethyl)-4′-(pyrrolidin-3-yl)-2-(1H-tetrazol-5-yl)-[1,1′-biphenyl]-3-sulfonamide]
VIM-1; [15]
  IC50: 4.58 nM
NDM-1; [16]
  IC50: 2.2 nM
[1]; [17]
  Escherichia coli MITC95: 0.7813 µM
[2]; [18]
  Serratia marcescens MITC95: 3.125 µM
[3]; [19]
  Klebsiella pneumoniae MITC95: 6.25 µM
IMP-1; [20]
  IC50: 17 nM

## NS(=O)(=O)c1c(C(F)(F)F)ccc(-c2cccc3c2CCCN3)c1-c1nnn[nH]1 [Example 518, 3-(1,2,3,4-Tetrahydroquinolin-5-yl)-2-(1H-tetrazol-5-yl)-6-(trifluoromethyl)benzenesulfonamide]
VIM-1; [22]
  IC50: 0.342 nM
NDM-1; [16]
  IC50: 0.775 nM
[1]; [17]
  Escherichia coli MITC95: 1.563 µM
[2]; [18]
  Serratia marcescens MITC95: 0.3906 µM
[3]; [19]
  Klebsiella pneumoniae MITC95: 6.25 µM
IMP-1; [20]
  IC50: 1.62 nM

## Nc1cc(-c2cccc(S(N)(=O)=O)c2-c2nnn[nH]2)cc(N)n1 [Example 133, 3-(2,6-diaminopyridin-4-yl)-2-(1H-tetrazol-5-yl)benzenesulfonamide]
VIM-1; [21]
  IC50: 108 nM
NDM-1; [5]
  IC50: 21.6 nM
[1]
  Escherichia coli expressing NDM-1 (CLB 30016) MITC95: 0.3906 µM
[2]
  Serratia marcescens expressing IMP-1 (CL5741) MITC95: 37.5 µM
[3]
  Klebsiella pneumoniae expressing VIM-1 (IHMA 599644) MITC95: 6.25 µM
IMP-1; [5]
  IC50: 4920 nM
